From article PMC4456360, “A Recombinant Fungal Lectin for Labeling Truncated Glycans on Human Cancer Cells” (PLoS ONE, 2015)
Values joined by “and” are separate entries in the source; they are usually repeats but may differ in a detail not shown here. Identical values can stand only once. Marks after values point to notes of the source that are not given here.

Tests used:
rPVL [1] = molecular target: T1, rPVL (Lacrymaria velutina (Psathyrella velutina), UniProt Q309D1); test: Surface plasmon resonance, oligosaccharides injected over rPVL-coated CM5 chip; assay type: binding; settings: 25°C, rPVL immobilized on chip; for Kd: read-out: SPR Kd
T1 sequence (Q309D1 1-395): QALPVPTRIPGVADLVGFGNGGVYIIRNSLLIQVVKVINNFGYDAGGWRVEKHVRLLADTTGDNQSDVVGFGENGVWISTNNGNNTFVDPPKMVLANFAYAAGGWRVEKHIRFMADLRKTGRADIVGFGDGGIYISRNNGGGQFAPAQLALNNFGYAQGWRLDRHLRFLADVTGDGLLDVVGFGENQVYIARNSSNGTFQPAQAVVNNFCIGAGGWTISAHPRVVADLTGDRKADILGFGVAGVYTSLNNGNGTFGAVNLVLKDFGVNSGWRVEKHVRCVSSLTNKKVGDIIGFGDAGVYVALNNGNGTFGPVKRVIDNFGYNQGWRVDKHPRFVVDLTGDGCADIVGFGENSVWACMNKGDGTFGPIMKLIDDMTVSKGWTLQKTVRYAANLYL
Description: All SPR experiments were performed on a Biacore X100 instrument (GE Healthcare) at 25°C in HBS (10 mM Hepes/NaOH, pH 7.5, 150 mM NaCl, 0.05% Tween 20) supplemented with 100 μM of CaCl2 at a flow rate of 30 μl min^-1. Binding was measured as resonance units over time after blank subtraction, and data were then evaluated by using the Biacore X100 evaluation software, version 2.0. Dissociation constants were determined by plotting response at equilibrium (Req, 10 s before the end of injection) against analyte concentration. For protein coated chip, 3500 resonance units of rPVL (100 μg ml^-1, 10 mM acetate buffer pH 6.2) have been immobilized on flow channel 2 of a research grade CM5 chip using standard amine coupling procedures. Flow channel 1 has been activated/deactivated. Experiments consist of injection (association 360 s, dissociation 400 s) of various concentrations of oligosaccharides (2 fold cascade dilutions, from 0 to 10 μM) on both channels.

rPVL [2] = molecular target: T1, rPVL; test: Titration microcalorimetry (ITC), rPVL in solution; assay type: binding; settings: for ITC -∆H / ITC T∆S / ITC n (number of binding sites per monomer) / Kd: 25°C; for Kd: rPVL in solution; for ITC n: stoichiometry value fixed during fitting procedure
Description: Recombinant lyophilized rPVL was dissolved in buffer (20 mM Tris/HCl, pH 7.5, NaCl 150 mM, 100 μM CaCl2) and degassed. The protein concentration was checked by measuring A280 by using a theoretical molar extinction coefficient of 65,890 M^-1 cm^-1. Carbohydrate ligands were dissolved in the same buffer, degassed, and loaded in the injection syringe. ITC was performed with a ITC200 microcalorimeter (GE Healthcare). The rPVL solution was placed in a 200 μl sample cell at 25°C. Titration was performed with 20 injections of 2 μl carbohydrate ligands every 120 s. The experimental data were fitted to a theoretical titration curve using Origin software supplied by GE Healthcare, with ΔH (enthalpy change), Ka (association constant) and n (number of binding sites per monomer) as adjustable parameters. Free energy change (ΔG) and entropy contributions (TΔS) were derived from the equation ΔG = ΔH – TΔS = —RT ln Ka (with T as the absolute temperature and R = 8.314 J mol^-1 K^-1). Two independent titrations were performed for each tested ligand.

rPVL [3] = molecular target: T1, rPVL; test: Glycan array (CFG Mammalian Printed Array version 5.1); assay type: binding; settings: Alexa Fluor 488 labeled rPVL
From the text: Purified rPVL were labeled with Alexa Fluor 488 (Invitrogen) according to the manufacturer’s instructions and repurified on a D-Salt polyacrylamide desalting column (Pierce). Alexa-labeled rPVL was used for glycan array screening with the standard procedure of the Protein-Glycan Interaction Core (H) of the Consortium for Functional Glycomics.

native PVL = molecular target: native PVL; parameters: method as in PMID 16497330; settings: ITC, native PVL isolated from mushroom; cited from earlier work
rPVL [4] = molecular target: T1, rPVL; test: Thermal shift analysis of rPVL with glycan ligands; assay type: binding
Description: Thermal shift assays were performed using a Mini Opticon, Real Time PCR machine (Bio-Rad Laboratories) with 0.5 mg ml^-1 of protein diluted in 100 mM NaCl, 20 mM Tris pH 7.5, 100 μM CaCl2, with or without oligosaccharide in a total reaction volume of 25 μl. SYPRO Orange (Molecular Probes, CA) was used as a fluorescent probe detected at 530 nm. The temperature was raised using 1°C/minute steps from 25°C to 100°C and fluorescence readings were taken at each interval. […] A minimum of two independent measurements were performed for each condition

Compound	Kd (rPVL [1])	ITC -∆H (rPVL [2])	ITC T∆S (rPVL [2])	Kd (rPVL [2])	further results
CC(=O)N[C@@H]1[C@@H](O)[C@H](O[C@@H]2O[C@H](CO)[C@@H](O[C@@H]3O[C@H](CO[C@H]4O[C@H](CO)[C@@H](O)[C@H](O)[C@@H]4O[C@@H]4O[C@H](CO)[C@@H](O)[C@H](O)[C@H]4NC(C)=O)[C@@H](O)[C@H](O[C@H]4O[C@H](CO)[C@@H](O)[C@H](O)[C@@H]4O[C@@H]4O[C@H](CO)[C@@H](O)[C@H](O)[C@H]4NC(C)=O)[C@@H]3O)[C@H](O)[C@H]2NC(C)=O)[C@@H](CO)O[C@H]1N=[N+]=[N-] [Biantennary N-glycan (2)]	179 µM	3.27 kcal/mol	2.82 kcal/mol	34 µM and 34.4 µM	ITC n (number of binding sites per monomer) (rPVL [2]): 1.9 ± 0.6; ITC n (number of binding sites per monomer) (rPVL [2]; listed as biantennary heptasaccharide): two
CC(=O)N[C@H]1[C@H](O[C@H]2[C@@H](O)[C@@H](CO)OC(O)[C@@H]2NC(C)=O)O[C@H](CO)[C@H](O)[C@@H]1O (some centres unmarked) [GalNAcβ1-3GalNAc]	–	–	–	–	binding of rPVL on glycan array (in words) (rPVL [3]): minor intensity
CC(=O)N[C@H]1[C@H](O[C@H]2[C@H](O)[C@@H](NC(C)=O)[C@H](O[C@H]3[C@H](O)[C@@H](NC(C)=O)C(O)O[C@@H]3CO)O[C@@H]2CO)O[C@H](CO)[C@@H](O[C@@H]2O[C@H](CO)[C@@H](O[C@@H]3O[C@H](CO)[C@@H](O)[C@H](O)[C@H]3NC(C)=O)[C@H](O)[C@H]2NC(C)=O)[C@@H]1O (stereo partly drawn) [GlcNAc(β1-4GlcNAc)4, GlcNAcβ1-4GlcNAcβ1-4GlcNAcβ1-4GlcNAcβ1-4GlcNAc]	358 µM	–	–	–	–
CC(=O)N[C@@H]1[C@@H](O)[C@H](O)[C@@H](CO)O[C@H]1O [GlcNAc, N-acetylglucosamine]	132 µM	9.85 kcal/mol	-4.3 kcal/mol	124 µM	ITC n (rPVL [2]): 5.0 ^b; Kd (native PVL): ~200 µM
CC(=O)N[C@H]1[C@H](O[C@H]2[C@@H](O)[C@@H](CO)OC(O)[C@@H]2O)O[C@H](CO)[C@@H](O)[C@@H]1O (some centres unmarked) [GlcNAcβ1-3Gal]	103 µM	10.1 kcal/mol	-4.66 kcal/mol	110 µM	Tm of rPVL in the presence of ligand (rPVL [4]): 60 °C
CC(=O)N[C@H]1[C@H](O[C@H]2[C@@H](O)[C@@H](CO)O[C@@H](O[C@H]3[C@H](O)[C@@H](O)C(O)O[C@@H]3CO)[C@@H]2O)O[C@H](CO)[C@@H](O)[C@@H]1O (some centres unmarked) [GlcNAcβ1-3Galβ1-4Glc (LNT2), GlcNAcβ1-3Galβ1-4Glc]	71 µM	9.97 kcal/mol	-4.57 kcal/mol	108 µM	Kd (rPVL [1]; listed as lacto-N-triose): ~70 µM; ITC n (number of binding sites per monomer) (rPVL [2]): 5.0 ± 0.2
CC(=O)N[C@H]1[C@H](O[C@H]2[C@H](O)[C@@H](NC(C)=O)C(O)O[C@@H]2CO)O[C@H](CO)[C@@H](O)[C@@H]1O (some centres unmarked) [GlcNAcβ1-4GlcNAc]	205 µM	8.82 kcal/mol	-3.49 kcal/mol	122 µM	ITC n (rPVL [2]): 5.0 ^b; Tm of rPVL in the presence of ligand (rPVL [4]): 60 °C; binding of rPVL on glycan array (in words) (rPVL [3]): only weakly
O=C[C@H](O)[C@@H](O)[C@@H](O)[C@H](O)CO [galactose]	–	–	–	–	stabilization of rPVL by carbohydrate (in words) (rPVL [4]): non-binding
OC[C@H]1O[C@@](CO)(O[C@H]2O[C@H](CO)[C@@H](O)[C@H](O)[C@H]2O)[C@@H](O)[C@@H]1O [sucrose]	–	–	–	–	stabilization of rPVL by carbohydrate (in words) (rPVL [4]): non-binding
Galβ1-3GlcNAcβ1-3Galβ1-4Glc [Galβ1-3GlcNAcβ1-3Galβ1-4Glc (LNT)]	–	–	–	–	SPR Kd (rPVL [1]): No binding
